SMILES	melting point [°C]
COCC(=O)Nc1cccc2c1C(=O)N(C1CCC(=O)NC1=O)C2=O (stereo unspecified)	246 to 248
OCC1CCN(c2nc3ccccc3s2)CC1	76 to 80
COc1ccc(S(=O)(=O)N(CC(=O)NO)Cc2ccc3ccccc3n2)cc1	177 to 178
OC(CN1CCNC1=S)c1cccc(C(F)(F)F)c1 (stereo unspecified)	117
COc1cc2c(cc1Nc1ncc(Cl)c(Nc3ccc(C#N)cc3OC)n1)CCN(CC(=O)N(C)C)CC2	92 to 105
CN(C(=N)Nc1ncccc1OCc1c(F)cccc1F)c1ccc(Cl)cc1	100 to 102
COC(=O)c1c(N)c2c(c(N)c1C#N)C(=O)c1ccccc1C2=O	215 to 218
CCCC(=O)NCc1ccc(NC(=O)/C=C/c2cnn(C)c2-c2ccc(F)cc2)cc1	259 to 260
CCc1cccc(-n2ncc(C(=O)O)c2C(N)=O)c1	176 to 178
Cc1cc(C)c2c3c([nH]c2c1)C(=O)N=NC3=O	> 250
N#Cc1cc(F)cc2c1OCCC21SC(=O)NC1=O (stereo unspecified)	230 to 232
O=C1NCCc2sccc21	94
CC(C)(C)C(O)(Cn1cncn1)C(Cl)=CCl (stereo unspecified)	49 to 52
O=C1N[C@H](/C=C/c2ccccc2)[C@@H]1N1C(=O)c2ccccc2C1=O (relative stereo)	168 to 170
Cc1nc(-n2ccccc2=O)sc1C(=O)NCc1cccnc1	218 to 220
CCCn1cc(Cc2ccc(C(=O)NS(=O)(=O)c3ccccc3C)cc2OC)c2cc(CCCCC(=O)N(C)C)ccc21	80 to 85
COc1cc2ccc(CC(=O)Cl)cc2cc1OC	51 to 62
CC#Cc1ccc(C2CCC(C3CCC(CCC)CC3)CC2)cc1 (stereo unspecified)	82
CCOC(=O)c1cnn(-c2cccc(Cl)c2)c1C(N)=O	132
CSC(c1ccc(Cl)cc1)C(C(=O)C(C)(C)C)n1cncn1 (stereo unspecified)	145
CCc1nc(/C=C/c2cn(-c3ccccc3)nc2O)cs1	222 to 224
O=C(NCCCCNS(=O)(=O)c1ccc(Oc2ccccc2)cc1)P(=O)(O)O	143 to 145
COc1ccc(CN2C(=O)CC2C(=O)O)c(OC)c1 (stereo unspecified)	124 to 125
N#Cc1cc(C(=O)c2ccncc2)ccc1O	310 to 311
CNc1ccsc1C(=O)CS(C)=O (stereo unspecified)	125 to 127
CCOC(=O)C=Cc1cc(-n2nc3ccc(Cl)cn3c2=O)c(F)cc1Cl	162 to 165

SMILES	melting point [°C]
C=CCC1C=C(c2c[nH]c(-c3ccc(F)cc3)c2-c2ccncc2)CCN1C (stereo unspecified)	218 to 220
O=[N+]([O-])c1cnc(-c2ccccc2)nc1Cl	160 to 161
CCC(O)(c1cc(OC)cc(OCc2ccc3ccccc3c2)c1)c1nccs1 (stereo unspecified)	105
Cc1ccccc1C(Oc1cc(OCc2ccncc2)ccc1C#N)c1nnn[nH]1 (racemic)	132 to 133
N#Cc1ccc(C=Cc2ccc(N(CCO)CCO)cc2)cc1	197
O=C1Nc2ccc3sccc3c2C1=O	200 to 201
CC(C)[C@@H](CO)Nc1nc(Nc2cccc(NS(C)(=O)=O)c2)nc2[nH]ccc12	106 to 109
CCOc1ccc(CC(=O)NCCc2ccc(OC(C)C)c(OC(C)C)c2)cc1OCC	71
CCOC(=O)c1cc(=O)cc(-c2ccccc2O)o1	213 to 215
OCc1ccc(/C=C/c2ccc(OC(F)(F)F)cc2)cc1	161 to 163
CCOC(=O)c1cnc(N)s1	155 to 158
Cc1nnc2c(-c3cccnc3)cccn12	112 to 115
CCOC(=O)c1c(-c2ccccc2)c2c3ccccc3ccn2c1C(C)C	82 to 84
Oc1ccc(CCNCC(O)c2ccccn2)cc1 (racemic)	112 to 114
CCOc1cc(COc2nn(-c3ccccc3)cc2C=O)ccc1OCc1nc(-c2ccco2)oc1C	149 to 150
COc1ccc(N2CCOCC2)c2sc(NC(=O)N(C)C3CCCC3)nc12	110 to 125
CN(C(=O)OC(C)(C)C)c1cc(Oc2ccccc2N2CCCCC2)ccc1N	108 to 110
COc1cc2c(cc1OC)CCC(C(=O)NO)=C2	179 to 180
CCn1c2ccc(C)cc2c2c3ccccc3ccc21	69 to 74
COc1cc(NC(=O)c2cccc(CSc3nc(NC(C)=O)n[nH]3)c2)cc(OC)c1OC	196 to 201
c1cc2c3c(c1)C[C@@H]1CCC[C@@H]1N3CCNC2 (relative stereo)	180 to 190
COc1cc2ncc(NC(=O)C=Cc3cc(OC)c(OC(C)=O)c(OC)c3)c(-c3ccccc3)c2cc1OC	256 to 257
Cc1cc(-c2nnc3c4ccccc4c(OCc4ncn(C)n4)nn23)on1	270 to 272
O=C1CCC(N2Cc3c(OCc4ccc(Cc5nc6ccccc6[nH]5)cc4)cccc3C2=O)C(=O)N1 (stereo unspecified)	203 to 205
N#Cc1cc(C(F)(F)F)nn1-c1ccc(NC(=O)c2ccncc2Cl)cc1	221 to 222
N#Cc1cc(NC(=O)c2ccn(-c3ccc(F)cc3)c2)ccc1N1CCCCC1	195 to 196

SMILES	melting point [°C]
O=S(=O)(c1ccccc1Cl)N1CCNc2ncc(I)cc21	146 to 147
O=[N+]([O-])c1cccc(Oc2cccc3cccnc23)c1	133 to 134
CN(C)C=CC(=O)c1cccc(OCC(O)CN2CCN(c3ccc(Cl)cc3)CC2)c1 (stereo unspecified)	144 to 145
C/C(=C\c1ccc(OCCS(C)=O)cc1)c1ccc2c(c1)C(C)(C)CCC2(C)C (stereo unspecified)	134 to 136
C=CC(CC(O)C(CC(C)C)NC(=O)C(Cc1c[nH]cn1)NC(=O)C(Cc1ccccc1)NC(=O)OC(C)(C)C)C(C)C (stereo unspecified)	82
Cc1cccc(-c2n[nH]cc2-c2ccc(F)c(-c3ccc(N4CCOCC4)nc3)c2)n1	85 to 87
COc1cc2ncc(C#N)c(Nc3c(C)cccc3O)c2cc1OC	245 to 247
C=C(C(=O)c1ccccc1)c1cccnc1	113 to 114
C=Cc1ccc(OC)c(OC)c1	110 to 114
COc1cc(C=O)ccc1OCc1cn(-c2ccccn2)nc1C	141 to 142
CCCCCCCCNC(=O)CCCC(C)(C)c1ccc(O)cc1O	110 to 113
Cc1ccc(S(=O)(=O)n2cc(C(C)O)c3ccc(C(=O)Nc4c(Cl)cncc4Cl)cc32)cc1 (stereo unspecified)	206 to 211
COC(=O)C(=O)c1ccc(OC/C=C/c2ccccc2)cc1	80 to 82
C#CCOc1cc(-n2ncc(=O)n(C)c2=O)c(Cl)cc1Cl	119 to 120
CCCc1c2c(cc3c(=O)cc(C(=O)OCC)oc13)CC(C(=O)OCC)CC2 (stereo unspecified)	89.5 to 90.5
CN(C)C=Cc1[nH]c(=O)ccc1C(=O)c1ccc(Br)cc1	265 to 268
CCc1noc(-c2ncn(-c3cccc(OC)c3)c2COC)n1	66 to 68
COc1cccc(OC)c1C(=O)Nc1ccc(C(=O)O)cc1	236 to 240
COC[C@H](Cc1ccccc1)NC(=O)[C@@H](CC(=O)OCc1ccccc1)NC(=O)OC(C)(C)C	60 to 63
CCOC(=O)c1ccc(N2CCC(NC(=O)OC(C)(C)C)CC2)nc1	140 to 142
CC(c1ccccc1)(c1ccc(OC(=O)CCl)cc1)c1ccc(OC(=O)CCl)cc1	97 to 98
O=Cc1ccc2c(ccc3ccccc32)c1	58 to 60
CCOC(=O)c1cccc(-c2nc(-c3ccc(C(C)C)cc3)cs2)c1	91 to 92
CNC(=S)NS(=O)(=O)c1cc(CCNC(=O)c2cc(Cl)ccc2OC)ccc1-c1ccccc1	192 to 196
CC(=O)Oc1cccc2c1C(=O)c1c(OC(C)=O)cc(-c3nnn[nH]3)cc1C2=O	189 to 190
COc1ccccc1C(=O)c1c(SC)oc2ccccc2c1=O	145

SMILES	melting point [°C]
O=C(c1ccc(-c2ccncc2)nc1)N1CCN(S(=O)(=O)c2ccc3cc(Br)ccc3c2)CC1	194
OC[C@H]1OC(O)[C@H](O)[C@H](F)[C@@H]1O (stereo partly specified)	120 to 122
CSc1ccc(C(=O)Nc2cccnc2C(=O)Nc2ccc(Cl)cn2)c(OC2CCNCC2)c1	157 to 158
CN(C)C(=O)c1cccc(CN2C(=O)C3(COc4cc5c(cc43)OCCO5)c3ccccc32)c1 (stereo unspecified)	90 to 96
CCCCNc1cc(CN)cc(S(N)(=O)=O)c1Oc1ccccc1	195 to 198
CC(=Cc1c[nH]c2ccc3c(c12)CC(O)CO3)[N+](=O)[O-] (stereo unspecified)	240 to 242
c1csc(-c2cnc(COc3ccc(CCCn4ccnc4)cc3)o2)c1	75 to 76
O=C(NCCCn1ccnc1-c1ccccc1)c1cc2ccccc2[nH]1	167 to 169
CCOCc1cc(COc2cc(C)nc(C)c2OC)ccc1-c1ccccc1S(=O)(=O)Nc1noc(C)c1C	78 to 82
Cc1nc(CO)cn1Cc1ccccc1	140 to 146
Cc1ccccc1Cc1n[nH]c2c1c(=O)n(-c1cccc(OC(F)(F)F)c1)c1ncccc21	240 to 242
N[C@@H](Cc1c[nH]c2ccccc12)c1nc2c(C(F)(F)F)cccc2c(O)c1C(=O)Nc1nccs1	190
COc1cc(OC)nc(NC(=O)Oc2ccccc2)n1	118 to 119
Brc1ccccc1SSc1ccccc1Br	95 to 97
O=C1CCC(=O)N1Cc1nc2sc3c(c2c(-c2ccc(O)cc2)c1Cl)CCS(=O)C3 (stereo unspecified)	274 to 276
CN1CC(=O)Nc2cccnc2C1=O	272 to 274
CCCCCCCCC1OC(=O)c2cc(NC(C)=O)ccc21 (stereo unspecified)	133 to 134
CCCCCC(CC(=O)Nc1cc(CO)ccc1C(C)(C)C)c1ccc(OC)cc1OC (stereo unspecified)	125 to 126
O=C1Nc2ccccc2C12CCCC(Br)C2 (stereo unspecified)	196 to 199
CC(C)(C)NC(=O)[C@@H]1CN(NC(=O)OC(C)(C)C)CCN1NC(=O)Cc1ccccc1	134 to 135
CC1(C)C(=O)N(c2ccc(C#N)c(C(F)(F)F)c2)C(=S)N1CCO	130
CCCCOC(=O)c1cccc2nc(CCCC)n(Cc3ccc(-c4ccccc4-c4nnn[nH]4)cc3)c12	192 to 193
CCOC(C)OC(CCOc1ccc([N+](=O)[O-])cc1)C(F)(F)F (stereo unspecified)	81

Source: a melting point compilation (Tetko et al.; mined from patent text by program, amines drawn as free bases though some values may be those of a salt)
